Values of other authors, collected in patent US7329673B2, “Acylated spiropiperidine derivatives as melanocortin-4 receptor agonists” (Merck & Co., Inc., priority 2003, dated 2008).

What was measured:
[1] = tested on: males with psychogenic erectile dysfunction
[2] = in vivo, po
[3] = tested on: men with erectile dysfunction; conditions: for duration of effect / onset of action: after an oral dose; for share of men/patients in whom effective (adequate response): oral

Ac-Nle-c[Asp-His-DPhe-Arg-Trp-Lys]-NH2 [MT-II]
duration of action ([1]; in vivo): approximately 2.5 hours | time to onset of erection ([1]; in vivo): 10 to 20 min | response rate ([1]; injected intramuscularly or subcutaneously): 75% | absorption into the systemic circulation [2]: not absorbed into the systemic circulation

CCCc1nn(C)c2c(=O)[nH]c(-c3cc(S(=O)(=O)N4CCN(C)CC4)ccc3OCC)nc12 [sildenafil]
duration of effect [3]: about 4 hours | onset of action [3]: 30 to 60 min | share of men/patients in whom effective (adequate response) [3]: about 70%

Cc1ccc(N(CC2=NCCN2)c2cccc(O)c2)cc1 [phentolamine]
duration of effect [3]: 2 h | onset of action [3]: 5 to 30 min | share of men/patients in whom effective (adequate response) [3]: 35-40%
